Assay results published in US9486461B2, “Methods and compositions for inducing apoptosis by stimulating ER stress” (UNIVERSITY OF SOUTHERN CALIFORNIA, priority 2007, dated 2016).
pIC50: −log10 of the molar value.

How the values were obtained:
[1] = test system: CHOP protein; experiment: Western blot of CHOP in various cancer cell lines; type: cell-based; settings: glioblastoma, breast carcinoma, pancreatic carcinoma, Burkitt's lymphoma, multiple myeloma cell lines; Cxb 40 and 60 μM, DMC 30 and 50 μM; 48 hours
Description: Total cellular lysates were prepared and analyzed by Western blot analysis with specific antibodies to CHOP. As a control for equal loading, all blots were also analyzed with antibodies to actin (only one of these control blots is shown at the bottom). The tumor type of each cell line is indicated on the right.
Total cell lysates were prepared by lysis of cells with radioimmunoprecipitation assay buffer (28), and protein concentrations were determined using the bicinchoninic acid protein assay reagent (Pierce, Rockford, Ill.). For Western blot analysis, 50 Ag of each sample were processed as described (29). The primary antibodies were purchased from Cell Signaling Technologies (Beverly, Mass.), Cayman Chemical (Ann Arbor, Mich.), or Santa Cruz Biotechnology, Inc. (Santa Cruz, Calif.) and used according to the manufacturer's recommendations. The secondary antibodies were coupled to horseradish peroxidase and detected by chemiluminescence using the SuperSignal West substrate from Pierce. All immunoblots were repeated at least once to confirm the results.

[2] = test system: cellular translation; experiment: Incorporation of 35S-methionine into newly translated proteins; type: cell-based; settings: 2 h of treatment
[3] = test system: cytoplasmic calcium levels in U251 cells; experiment: Cytoplasmic calcium imaging (Fura-2/AM); type: cell-based, human; settings: for elevation of cytoplasmic calcium levels: 100 μmol/L of each drug, Fura-2/AM loaded cells
Description: (A) U251 cells were treated with DMC or various coxibs and NSAIDs, and changes in intracellular calcium levels were recorded as described in Materials & Methods. […] Arrows indicate timepoint of drug addition. […] Essentially similar results were also obtained with the LN229 cell line.
The cells were loaded by incubating them with […] Fura-2/AM (Invitrogen) for 30 min at room temperature in external solution containing 138 mmol/L NaCl, 5.6 mmol/L KCl, 1.2 mmol/L MgCl2, 2.6 mmol/L CaCl2, 10 mmol/L HEPES, and 4 mmol/L glucose (pH 7.4). After loading, the cells were rinsed and transferred to the imaging setup. The cells were treated with individual drugs for 10 s, whereas fluorescence was elicited with the excitation wavelength alternating between 350 and 380 nm, using a Polychromator V (TILL Photonics GmbH, Grafelfing, Germany) to provide illumination via a Zeiss Axiovert 100 microscope with a Zeiss Fluar 40 oil objective (Carl Zeiss, Jena, Germany). Images were captured using a Cascade 512B CCD camera (Photometrics, Tucson, Ariz.) controlled with MetaFluor software (Molecular Devices, Sunnyvale, Calif.) at 0.5 Hz acquisition frequency. Ratios of the images obtained at 350 and 380 nm excitation were used to show changes in the cytoplasmic calcium concentration, according to the principles developed by Grynkiewicz et al. (31).

[4] = test system: U251 glioblastoma cells; experiment: MTT assay, U251; type: cell-based, human; settings: for pIC50: Homo sapiens, U-251, U251, 48 h, MTT, read-out: IC50 (50% inhibition of cell growth)
Description: U251 glioblastoma cells were treated with different drugs, and various parameters of cell growth and cell death were comparatively analyzed. As controls, cells remained either non-treated (Co) or were treated with the solvent DMSO alone. (FIG. 8A) Cells were treated with 30 or 50 μM DMC for 48 hours and the effects on cell growth/survival and on cell death were determined by various assays. […] Below the three panels, the expression levels of the ER stress indicators CHOP, GRP78, and caspase 4 at the end of the 48 hour drug treatment is shown, as determined by Western blot analysis with specific antibodies (actin served as a loading control. (FIG. 8B) Cells were treated with various concentrations of different drugs for 48 hours, as indicated, and cell death was measured with the cell death ELISA kit. (FIG. 8C) Cells were treated with DMC or various coxibs and traditional NSAIDs for 48 hours, as indicated, and cell growth and survival was determined with the conventional MTT assay (control, non-treated cells were set at 100%). MTT assays were performed in 96-well plates with the use of 3.0-8.0×10^3 cells per well as described in detail elsewhere (34). In parallel, the expression levels of CHOP and GRP78 protein were determined by Western blot analysis. […]
(§1) 3-(4,5-Dimethylthiazol-2-yl)-2,5-diphenyltetrazolium bromide (MTT) assays were performed in 96-well plates with the use of 3.0×10^3 to 8.0×10^3 cells per well as described in detail elsewhere (19).

[5] = test system: CHOP protein in U87 glioblastoma tumor tissue; experiment: Immunohistochemical staining for CHOP in xenograft tumor tissue; type: in vivo, nude mice; settings: for CHOP staining of tumor tissues: 30-180 mg/kg per day for 50 h, DMC and celecoxib already at lowest dosages
Description: In all cases, representative sections are shown.
Immunohistochemical analysis of protein expression in tumor tissues was done with the use of the Vectastain avidin-biotin complex method kit (Vector Laboratories, Burlingame, Calif.) according to the manufacturer's instructions. This procedure uses biotinylated secondary antibodies and a preformed avidin: biotinylated enzyme complex that has been termed the avidin-biotin complex method technique. As the primary antibody, we used anti-CHOP antibody (Santa Cruz Biotechnology) diluted 1:100 in 2% normal goat blocking serum.

[6] = test system: U87MG glioblastoma cell line; experiment: MTT assay, U87MG; type: cell-based; settings: Homo sapiens, U-87 MG, 48 h, read-out: IC50 (50% inhibition of cell growth)
Description: (§2) For comparison purposes to the known anti-multiple myeloma effects of bortezomib, the RPMI/8226 multiple myeloma cell line was included in (A).
as §1

[7] = test system: T98G glioblastoma cell line; experiment: MTT assay, T98G; type: cell-based; settings: Homo sapiens, 48 h, read-out: IC50 (50% inhibition of cell growth)
Description: as §2, §1

[8] = test system: LN229 glioblastoma cell line; experiment: MTT assay, LN229; type: cell-based, human; settings: LN229, 48 h
Description: as §2, §1

Row | Compound | induction of CHOP protein [1] | reduction of ongoing translation ([2]; 60 μmol/L) [%] | elevation of cytoplasmic calcium levels [3] | average maximum calcium peak compared with celecoxib ([3]; 100 μmol/L, difference not statistically significant) | pIC50 [4] | cellular activity in MTT assays ([4]; U251, 30 and 50 μmol/L, 48 hours) | CHOP expression in tumor tissue ([5]; U87MG xenograft, 1 mg/kg BZM and 7.5 mg/kg DMC individually or in combination, 50 h) | CHOP staining of tumor tissues ([5]; U87 xenograft) | CHOP protein expression in tumor tissue ([5]; U87 xenograft, animals fed drug for 50 h) | pIC50 [6] | pIC50 [7] | sensitivity of LN229 compared with the other glioblastoma cell lines [8] | reduction of ongoing translation ([2]; 80 μmol/L) [%] | detectable effect on cell growth and survival (MTT) ([4]; U251, 48 hours, concentrations of up to 100 μmol/L)
1 | Cc1ccc(C)c(-c2cc(C(F)(F)F)nn2-c2ccc(S(N)(=O)=O)cc2)c1 [DMC, 4-[5-(2,5-dimethylphenyl)-3-(trifluoromethyl)-1H-pyrazol-1-yl]benzenesulfonamide] | potently induce CHOP | ~90 | pronounced calcium spike | somewhat greater | > 4.40 | reduced cellular activity | did not cause much elevated CHOP expression | positive for CHOP | large increase in CHOP protein expression | > 4.40 | > 4.40 | slightly less sensitive |  | 
2 | Cc1ccc(-c2cc(C(F)(F)F)nn2-c2ccc(S(N)(=O)=O)cc2)cc1 [celecoxib, 4-[5-(4-methylphenyl)-3-(trifluoromethyl)-1H-pyrazol-1-yl]benzenesulfonamide] | potently induce CHOP |  | pronounced calcium spike |  | ~4.30 |  |  | positive for CHOP |  | ~4.30 | ~4.30 | slightly less sensitive | ~90 | reduced the viability of the cell culture
